Reference: patent publication US10758627B2, “Peptide-polynucleotide complex for polynucleotide transfection” (Washington University, priority 2015, dated 2020)

System: B16 cells stably expressing GFP-PEST
Assay: Screening for siRNA knockdown: delivery of GFP siRNA for knockdown of GFP in B16 GFP cells
Format: cell-based
Details: for Able to transfect?: peptide/GFP siRNA particle
Description: Knockdown of B16 cells stably expressing GFP-PEST allowed quick screening for effective siRNA knockdown of GFP expression because the PEST sequence shortens GFP half-life from 26 to 10 hours. Melittin derivatives were chosen based on modifications designed to decrease cytotoxicity as well as improve interactions with oligonucleotides. These peptides were screened for their ability to deliver GFP siRNA for the knockdown of GFP in B16 GFP cells (Table 1, FIG. 1).
The melittin derivatives were formulated by Genscript (Piscataway, N.J.), dissolved at 10 mM in RNAse/DNAse free water (Sigma, St. Louis, Mo.) and stored in 4 μl aliquots at −80° C. before use. Transfection complexes were prepared by diluting the peptide 1:200 in phosphate buffered saline (PBS, Sigma), vortexed for 30 seconds, followed by addition of the appropriate amount of siRNA (stock concentration of 10 μM in 1× siRNA buffer (Thermo)) and incubated for 40 minutes at 37° C. with shaking in an Eppendorf Thermomixer R. Resulting nanoparticles were analyzed for siRNA incorporation by resolution on a 12% polyacrylamide gel followed by ethidium bromide staining. Dynamic light scattering (DLS) and zeta potential measurements were performed on a Zeta Plus particle sizer (Brookhaven Instruments, Newton, Mass.). Serum stability analysis was performed by incubating freshly formed peptide/siRNA nanoparticles in 10 mg/ml Human Serum Albumin (HSA, Sigma) overnight followed by DLS and zeta potential measurements.
B16F10 and RAW264.7 (ATCC, Manassas, Va.) cell lines can be maintained under standard cell culture conditions (37° C. and 5% CO2 in a humidified incubator) in DMEM (Gibco, Carlsbad, Calif.) supplemented with 10% fetal bovine serum (Gibco). B16F10 cells stably expressing GFP can be produced as follows. B16F10 can be transfected (Lipofectamine 2000, Invitrogen) with a fusion of EGFP (pEGFP-N1, Clontech) and the PEST sequence from mouse ornithine decarboxylase (S421-V461) in pEF6V5HisTOPO (Invitrogen). Cells are selected for four rounds with cell sorting by flow cytometry without antibiotic selection. Typically, an aliquot of cells can be maintained in continuous culture for a month without a noticeable change in EGFP expression level. Human umbilical vein endothelial cells (HUVECs) can be purchased from Lifeline Technologies (Frederick, Md.) and cultured in VascuLife Basal Medium (Lifeline Technologies) supplemented with 5 ng/mL EGF, 5 ng/ml bFGF, 15 ng/mL IGF-1, 50 μg/mL ascorbic acid, 1 μg/mL hydrocortisone hem isuccinate, 0.75 U/mL Heparin Sulfate, 10 mM L-glutamine, 2% fetal bovine serum in accordance with manufacturer instructions.
For transfection, cells can be plated in 6 well plates 12 hours before transfection and cultured under standard cell culture conditions. Peptide/siRNA nanoparticles are prepared and incubated with cells for 4 hours in a final volume of 1 mL Optimem I (Gibco) or appropriate media supplemented with 10% FBS. Transfections are scaled accordingly for cells plated in 12 well plates based on cell culture surface area. After transfection, cells are washed twice with PBS and incubated with standard cell culture medium for another 24-72 hours before analysis. Lipofectamine 2000 can be used in accordance with the manufacturer's protocol. Briefly, Lipofectamine 2000 is diluted in Optimem I to a final concentration of 8.4 μg/ml and incubated at room temperature for 15 minutes. siRNA is then added to the diluted lipid and incubated for another 40 minutes before dilution to 1 mL total volume with Optimem I for transfection. Suitable eGFP siRNA can be purchased from Sigma. siGENOME mouse MAPK9 siRNA1, siGENOME mouse STAT3 siRNA2, and siGENOME human STAT3 siRNA2 gene specific siRNAs can be purchased from Dharmacon (Lafayette, Colo.). Scrambled siRNA can be purchased from Qiagen (Valencia, Calif.).

[1] = charge ratio (+/−) 6:1 (peptide/siRNA 28:1 to 62:1 depending on peptide)
[2] = charge ratio (+/−) 12:1 (peptide/siRNA 56:1 to 124:1 depending on peptide)
[3] = charge ratio (+/−) 24:1 (peptide/siRNA 112:1 to 248:1 depending on peptide)
[4] = ratio of peptide:polynucleotide between 50:1 and 200:1

Molecule | toxicity to cells in the tested concentration range (B16 GFP cells, concentration range of the screen) | Able to transfect? [1] | Able to transfect? [2] | Able to transfect? [3] | ability to transfect (ratio of 50:1) | ability to transfect (ratio of peptide:polynucleotide less than 50:1) | GFP knockdown [4] | ability to transfect [4]
CC[C@H](C)[C@H](NC(=O)CN)C(=O)NCC(=O)N[C@@H](C)C(=O)N[C@H](C(=O)N[C@@H](CC(C)C)C(=O)N[C@@H](CCCCN)C(=O)N[C@H](C(=O)N[C@@H](CC(C)C)C(=O)N[C@H](C(=O)N[C@H](C(=O)NCC(=O)N[C@@H](CC(C)C)C(=O)N1CCC[C@H]1C(=O)N[C@@H](C)C(=O)N[C@@H](CC(C)C)C(=O)N[C@H](C(=O)N[C@@H](CO)C(=O)N[C@@H](Cc1c[nH]c2ccccc12)C(=O)N[C@H](C(=O)N[C@@H](CCCCN)C(=O)N[C@@H](CCCNC(=N)N)C(=O)N[C@@H](CCCCN)C(=O)N[C@@H](CCCNC(=N)N)C(=O)N[C@@H](CCC(N)=O)C(=O)N[C@@H](CCC(N)=O)C(N)=O)[C@@H](C)CC)[C@@H](C)CC)[C@@H](C)O)[C@@H](C)O)C(C)C)C(C)C [Melittin] | too toxic | No | Toxic | Toxic |  |  |  | 
VLTTGLPALISWIKRKRQHRWRRRR [Peptide 5RWRH] |  | Yes | No | No | did not work | able to transfect |  | 
VLTTGLPALISWIKRKRQQC [Peptide 5C] |  | No | No | No |  |  |  | 
VLTTGLPALISWIKRKRQQRWRRRR [Peptide 5RWR] |  | No | No | No |  |  |  | 
VLTTGLPALISWIRRRHRRHC [Peptide 5RHH] |  | Yes | Yes | Yes |  |  | exhibited GFP knockdown | able to transfect
